Peptide text beside a SMILES is read from it.
System: erythrocytes infected with 3D7 trophozoites
Format: cell-based, Plasmodium falciparum
Conditions: sheet Ratio; for Ratio of metabolite abundance, Exp1_1hr: Exp1, 1hr; for Ratio of metabolite abundance, Exp1_3hr: Exp1, 3hr; for Ratio of metabolite abundance, Exp1_6hr: Exp1, 6hr; for Ratio of metabolite abundance, Exp2_1hr: Exp2, 1hr; for Ratio of metabolite abundance, Exp2_3hr: Exp2, 3hr; for Ratio of metabolite abundance, Exp2_6hr: Exp2, 6hr; for Ratio of metabolite abundance, Exp3_1hr: Exp3, 1hr; for Ratio of metabolite abundance, Exp3_3hr: Exp3, 3hr; for Ratio of metabolite abundance, Exp3_6hr: Exp3, 6hr

Row | Compound | Ratio of metabolite abundance, Exp1_1hr | Ratio of metabolite abundance, Exp1_3hr | Ratio of metabolite abundance, Exp1_6hr | Ratio of metabolite abundance, Exp2_1hr | Ratio of metabolite abundance, Exp2_3hr | Ratio of metabolite abundance, Exp2_6hr | Ratio of metabolite abundance, Exp3_1hr | Ratio of metabolite abundance, Exp3_3hr | Ratio of metabolite abundance, Exp3_6hr
1 | CC(C)C[C@H](NC(=O)[C@H](C)NC(=O)[C@@H](N)CC(=O)O)C(=O)N[C@H](C(=O)O)[C@@H](C)O [DALT] (H-DALT-OH) | 0.634 | 0.4153 | 1.635 | 0.755 | 0.5469 | 1.439 | 0.7343 | 0.6802 | 1.903
2 | CC(C)[C@H](NC(=O)[C@H](CCC(=O)O)NC(=O)[C@@H](N)CC(=O)O)C(=O)NCC(=O)O [DEVG] (H-DEVG-OH) | 1.013 | 0.6309 | 0.8753 | 0.8701 | 1.059 | 1.02 | 1.139 | 1.261 | 0.9839
3 | CCCCC/C=C\C/C=C\C/C=C\CCCCCCC(=O)O [DGLA] | 0.6512 | 0.4296 | 1.744 | 0.832 | 0.6938 | 1.456 | 0.7202 | 0.7277 | 2.242
4 | CC(C)C[C@H](NC(=O)[C@@H](N)CC(=O)O)C(=O)N[C@@H](CO)C(=O)O [DLS] (H-Asp-Leu-Ser-OH) | 0.4981 | 0.5494 | 0.8725 | 0.8907 | 0.8658 | 1.124 | 0.9354 | 0.5821 | 0.7887
5 | O=C1CC(C(=O)O)NC(=O)N1 (stereo not drawn) [Dihydroorotate] | 0.7855 | 0.5689 | 0.4919 | 0.9051 | 0.4712 | 0.6702 | 0.4693 | 0.4085 | 0.3763
6 | N[C@@H](CCC(=O)O)C(=O)N[C@@H](CO)C(=O)N[C@@H](Cc1ccccc1)C(=O)NCC(=O)O [ESFG] (H-ESFG-OH) | 1.207 | 0.8233 | 1.441 | 1.518 | 1.053 | 1.4585 | 1.266 | 0.9822 | 1.358
7 | CC(C)[C@H](NC(=O)[C@@H](N)CCC(=O)O)C(=O)NCC(=O)NCC(=O)O [EVGG] (H-EVGG-OH) | 1.013 | 0.7941 | 0.8262 | 1.036 | 0.9151 | 0.9384 | 0.988 | 0.9676 | 0.8158
8 | O=C[C@H](O)[C@H](O)COP(=O)(O)O [Erythrose 4-phosphate] | 0.8874 | 1.021 | 0.7492 | 0.7497 | 0.9809 | 0.8462 | 0.7238 | 0.584 | 0.3651
9 | Cc1cc2nc3c(=O)[nH]c(=O)nc-3n(C[C@H](O)[C@H](O)[C@H](O)COP(=O)(O)OP(=O)(O)OC[C@H]3O[C@@H](n4cnc5c(N)ncnc54)[C@H](O)[C@@H]3O)c2cc1C [FAD] | 0.999 | 0.6842 | 0.7003 | 0.9752 | 0.8156 | 0.7377 | 0.855 | 0.7422 | 0.5377
10 | Cc1cc2nc3c(=O)[nH]c(=O)nc-3n(C[C@H](O)[C@H](O)[C@H](O)COP(=O)(O)O)c2cc1C [FMN] | 0.8812 | 0.6056 | 0.6532 | 1.341 | 1.123 | 0.8423 | 0.5112 | 0.5214 | 0.5073
11 | O=P(O)(O)OC[C@H]1O[C@](O)(COP(=O)(O)O)[C@@H](O)[C@@H]1O [Fructose-1-6-bisphosphate] | 2.629 | 3.883 | 1.856 | 2.007 | 1.872 | 1.498 | 1.953 | 1.49 | 0.822
12 | O=P(O)(O)OC[C@H]1OC(O)(CO)[C@@H](O)[C@@H]1O (stereo partly drawn) [Fructose-6-Phosphate] | 1.008 | 1.026 | 1.013 | 1.111 | 1.041 | 0.9386 | 1.073 | 1.052 | 0.8397
13 | Nc1nc2c(ncn2[C@@H]2O[C@H](COP(=O)(O)OP(=O)(O)O[C@H]3O[C@H](CO)[C@@H](O)[C@H](O)[C@@H]3O)[C@@H](O)[C@H]2O)c(=O)[nH]1 [GDP-mannose] | 1.172 | 0.7132 | 0.4189 | 0.9396 | 0.7145 | 0.4773 | 0.9382 | 0.7837 | 0.5338
14 | Nc1nc2c(ncn2[C@@H]2O[C@H](COP(=O)(O)OP(=O)(O)O)[C@@H](O)[C@H]2O)c(=O)[nH]1 [GDP] | 0.4319 | 0.3131 | 0.5082 | 0.6304 | 0.5095 | 0.5364 | 0.8846 | 0.5153 | 0.569
15 | Nc1nc2c(ncn2[C@@H]2O[C@H](COP(=O)(O)O)[C@@H](O)[C@H]2O)c(=O)[nH]1 [GMP] | 0.2584 | 0.2388 | 0.4652 | 0.6356 | 0.2451 | 0.4274 | 0.5874 | 0.5355 | 0.8077
16 | Nc1nc2c(ncn2[C@@H]2O[C@H](COP(=O)(O)OP(=O)(O)OP(=O)(O)O)[C@@H](O)[C@H]2O)c(=O)[nH]1 [GTP] | 0.6647 | 0.5629 | 0.5991 | 0.6384 | 0.6479 | 0.6462 | 0.7156 | 0.6328 | 0.6081
17 | O=P(O)(O)OC[C@H]1OC(O)[C@H](O)[C@@H](O)[C@@H]1O (stereo partly drawn) [Glucose-6-Phosphate] | 0.8219 | 0.7353 | 0.7494 | 0.9729 | 0.8323 | 0.7319 | 0.8489 | 0.791 | 0.6337
18 | N[C@@H](CCC(=O)O)C(=O)O [Glutamate] | 1.14 | 0.9816 | 0.9735 | 1.0715 | 0.9058 | 0.8408 | 1.009 | 0.9619 | 1.158
19 | O=C[C@H](O)COP(=O)(O)O [Glyceraldehyde 3-phosphate] | 0.7448 | 0.7431 | 0.4349 | 0.5818 | 0.6033 | 0.4986 | 0.4745 | 0.6544 | 0.4238
